In this assay the test system is A673 NR0B1-luciferase reporter, viability-normalised luminescence. Nature of the assay: suppressors of NR0B1-promoter luciferase reporter, dose response, EWS/Fli inhibitor project, luciferase luminescence, A673 cells, cherry-pick (AID 686920).

Regarding `CC(=NNc1ccc2ccccc2n1)c1ccccn1`, the AC35 was 0.597 µM.

`O=C(Nc1ccc2c(c1)OCO2)N1C[C@@H]2N[C@H](C1)C2c1ccc(C=Cc2ccccc2)cc1` (some centres undefined): the AC35 is 19 µM.

As for `O=C(N/N=C/c1cnc(N2CCCCC2)s1)c1ccc(C(F)(F)F)cc1`, the AC35 is 56.8 µM.

`C=C1C(=O)[C@@]23[C@H](O)C[C@@H]4C(C)(C)CC[C@H](O)[C@@]4(C)[C@@H]2CC[C@@H]1[C@H]3O`: the AC35 is 9.06 µM.

Turning to `C[C@]12CCC3C(CCC4=CC(O)CC[C@@]43/C=N/O)C1(O)CCC2C1=CC(=O)OC1` (some centres undefined), the AC35 was 0.529 µM.

With `C[C@@H]1CN([C@@H](C)CO)C(=O)c2cccc(NS(=O)(=O)c3ccccc3)c2O[C@@H]1CN(C)Cc1ccc(C(=O)Nc2ccccc2N)cc1`, the AC35 is 5.67 µM.

For the compound `C[C@@H]1CN([C@H](C)CO)S(=O)(=O)c2ccc(C#Cc3ccncc3)cc2O[C@@H]1CN(C)C(=O)Nc1ccc2c(c1)OCO2`, the AC35 was 24.5 µM.

As to `CCc1ccc(/C=C2\SC(=S)N(CCCC(=O)NCCCN3CCOCC3)C2=O)cc1`, the AC35 was 1.98 µM.

On to `CCN1C/C(=C/c2ccc(N3CCOCC3)cc2)C(=O)/C(=C/c2ccc(N3CCOCC3)cc2)C1`, for which the AC35 is 5.5 µM.

As to `COc1ccc([Si](C)(C)[C@H]2[C@H](CCO)O[C@@]3(C(=O)N(c4ccccc4)c4ccccc43)[C@@H]2C)cc1`, the AC35 was 7.79 µM.

For the compound `CC(=O)OC1CC(OC2C(O)CC(OC3C(O)CC(OC4CCC5(C)C(CCC6C5CC(O)C5(C)C(C7=CC(=O)OC7)CCC65O)C4)OC3C)OC2C)OC(C)C1OC1OC(CO)C(O)C(O)C1O` (centres undefined), the AC35 is 0.225 µM.

`COc1ccc(S(=O)(=O)N2CC[C@@H]3[C@@H](CO)Nc4ccc(-c5ccc(C#N)cc5)cc4[C@@H]32)cc1`: the AC35 was 0.625 µM.

With `CN(C)CC1CCC/C(=C\c2ccc(OC(=O)c3ccc(Cl)cc3)cc2)C1=O` (centres undefined), the AC35 was 5.76 µM.

Consider `CCc1nc(N)nc(N)c1-c1ccc(Cl)c(N=[N+]=[N-])c1`, for which the AC35 was 6.23 µM.

As for `CC(=O)OC1CC(OC2C(O)CC(OC3C(O)CC(OC4CCC5(C)C(CCC6C5CCC5(C)C(C7=CC(=O)OC7)CCC65O)C4)OC3C)OC2C)OC(C)C1OC1OC(CO)C(O)C(O)C1O` (centres undefined), the AC35 was 0.0893 µM.

`Cc1cc(C(=O)CN2C(=O)c3ccccc3S2(=O)=O)c(C)n1C(C)C`: the AC35 is 3.04 µM.

Regarding `O=C(O)c1ccc(N/N=C/c2cc(Br)cs2)cc1`, the AC35 is 7.22 µM.

Consider `N#CC1=C(N)Oc2cc(N)ccc2C1c1cccc(F)c1` (centres undefined), for which the AC35 was 1.96 µM.

As to `O=C(O)c1ccc2cc(-c3ccccc3)[nH]c2c1`, the AC35 is 6.18 µM.

For `Cc1[nH][nH]c(=O)c1C(c1c(C)[nH][nH]c1=O)c1cn(Cc2ccc(Cl)c(Cl)c2)c2ccccc12`, the AC35 was 4.99 µM.

Take `Nc1nc(N)c(-c2cccc(C(F)(F)F)c2)c(Cc2cccc(C(F)(F)F)c2)n1`: the AC35 is 2.54 µM.

Take `Cc1cccc(N2CCN(C3C(=O)Nc4ccccc4-n4nnnc43)CC2)c1C` (centres undefined): the AC35 was 9.29 µM.

Take `CCN1C/C(=C/c2ccc(OC)c(O)c2)C(=O)/C(=C/c2ccc(OC)c(O)c2)C1`: the AC35 was 17.3 µM.

Regarding `O=C(NC(c1ccc(F)cc1)c1ccc2ccccc2n1)C1CCN(Cc2cccc(C(F)(F)F)c2)CC1` (centres undefined), the AC35 was 7.77 µM.

Turning to `Cc1nc(N)nc(N)c1-c1ccc(Cl)c(Cl)c1`, the AC35 is 0.495 µM.

For `Cc1ccc(S(=O)(=O)Nc2ccc3c(c2)C(=O)N([C@H](C)CO)C[C@H](C)[C@@H](CN(C)Cc2ccc(C(F)(F)F)cc2)OCCCC[C@H](C)O3)cc1`, the AC35 was 11.5 µM.

Regarding `CCc1ccc(/C=C2\SC(=S)N(CCC(=O)Nc3cc(C)on3)C2=O)cc1`, the AC35 is 6.38 µM.

For the compound `O=C(/C=C/c1ccc(Cl)cc1Cl)N(Cc1ccc(Cl)cc1)C1CCS(=O)(=O)C1` (centres undefined), the AC35 is 33.5 µM.

As for `Cc1cccc(/C=C(\c2nc3ccccc3[nH]2)S(=O)(=O)c2ccccc2)c1`, the AC35 is 5.46 µM.

On to `C[C@H](CO)N1C[C@H](C)[C@@H](CN(C)Cc2ccc(C(F)(F)F)cc2)OCCCC[C@H](C)Oc2ccc(NS(=O)(=O)c3ccc(F)cc3)cc2C1=O`, for which the AC35 is 16.6 µM.

`COc1ccc(-c2sc3ccccc3c2-c2ccc(OCCN3CCCCC3)cc2)cc1`: the AC35 was 7.87 µM.

`N#C[C@H]1N[C@H](CO)[C@H]1c1ccc(C#Cc2ccccc2F)cc1`: the AC35 was 0.137 µM.

With `Cc1ccccc1N=CC1=C(O)c2ccccc2C1=O`, the AC35 is 2.72 µM.

Take `C[C@H]1CN([C@@H](C)CO)C(=O)c2cccc(NC(=O)CCCCCC(=O)Nc3ccccc3N)c2O[C@@H]1CN(C)Cc1ccc2c(c1)OCO2`: the AC35 is 15.2 µM.

Take `C[C@H](CO)N1C[C@H](C)[C@H](CN(C)Cc2ccc(Oc3ccccc3)cc2)Oc2ccc(NC(=O)Cn3cnnn3)cc2CC1=O`: the AC35 was 33.2 µM.

Consider `COC(=O)Cc1[nH]n(-c2nc3ccccc3s2)c(=O)c1C(C)=Nc1ccc(OC)cc1`, for which the AC35 is 4.31 µM.

For the compound `C=C1C(=O)OC2C1CCC(C)C1C=CC(=O)C12C` (centres undefined), the AC35 is 15.5 µM.

`NC1=CC(=O)C(=O)c2cccnc21`: the AC35 is 14 µM.

As to `O=C(O)c1cccc(N/N=C/c2ccc(OC(F)(F)F)cc2)c1`, the AC35 is 2.26 µM.

Regarding `O=C1c2ccccc2C(=O)N1CCCCNc1ccccc1`, the AC35 is 3.44 µM.

As to `CC(=O)Nc1ccc(S(=O)(=O)Nc2ccc(N3CCCCC3)cc2)cc1`, the AC35 was 8.66 µM.

With `C[C@@H]1CN([C@H](C)CO)S(=O)(=O)c2ccc(C#CC3CC3)cc2O[C@@H]1CN(C)Cc1ccccc1F`, the AC35 is 30.4 µM.

With `COc1ccc(C(CCNCc2ccc(OC(C)C)cc2)C(C)C)cc1` (centres undefined), the AC35 is 15.2 µM.

With `CCN(Cc1ccccc1)c1ccc(/C=N/N=C(N)N)cc1`, the AC35 is 10.6 µM.

In the case of `CCCCCCCCCCCCCCCCn1cc[n+](C)c1`, the AC35 is 10.3 µM.

Take `Cc1c(Cl)cnc(NC(=O)COC(=O)c2ccc3ncsc3c2)c1Cl`: the AC35 was 7.23 µM.

As to `C[C@H](CO)N1C[C@H](C)[C@H](CN(C)CC2CCCCC2)Oc2ccc(NC(=O)Nc3cccc4ccccc34)cc2C1=O`, the AC35 is 43.3 µM.

As for `CC12CCC(O)CC1CCC1C2CCC2(C)C(C3=CC(=O)OC3)CCC12O` (centres undefined), the AC35 was 0.391 µM.

As to `O=C(Nc1ccc(Br)cc1)c1ccc(F)c(S(=O)(=O)N2CCN(c3ccccn3)CC2)c1`, the AC35 is 7.79 µM.

In the case of `Cc1cc(C(=O)Nc2ccc3c(c2)C(=O)N(C)[C@@H]2CC[C@@H](CC(=O)NCc4ccc(-c5ccccc5)cc4)O[C@H]2CO3)no1`, the AC35 is 6.29 µM.

`CCOc1cc(N2CCC(O)CC2)ccc1Nc1ncc2c(n1)N(C)c1ccccc1C(=O)N2C`: the AC35 was 2.01 µM.

`Nc1ccc2oc(-c3cc(Br)ccc3Cl)nc2c1`: the AC35 is 15 µM.

Consider `C[C@]12CC[C@H](O)C[C@H]1CC[C@@H]1C2CC[C@]2(C)[C@@H](C3=CC(=O)OC3)[C@@H](O)C[C@]12O` (some centres undefined), for which the AC35 is 2.86 µM.

As for `O=c1c2ccccc2oc2ccc(C#CC3(O)CCCCC3)cc12`, the AC35 was 14.1 µM.

For `CCOc1ccc(/C=C2\CCc3ccccc3C2=O)cc1`, the AC35 is 9.24 µM.

As for `CC(=NNc1ccc2ccccc2n1)c1ccccc1O`, the AC35 was 5.09 µM.

On to `C[C@@H]1CCCCO[C@@H](CN(C)C(=O)Cc2ccccc2)[C@@H](C)CN([C@@H](C)CO)C(=O)c2cc(NS(=O)(=O)c3ccc(F)cc3)ccc2O1`, for which the AC35 was 43.9 µM.

With `CN1C/C(=C/c2ccsc2)C(=O)/C(=C/c2ccsc2)C1`, the AC35 was 9.82 µM.

In the case of `Nc1nc(=S)c2[nH]cnc2[nH]1`, the AC35 is 2.5 µM.

`COc1ccc(C(C)(O)c2nc(-c3cccc(F)c3)cs2)cc1` (centres undefined): the AC35 was 8.04 µM.

Take `Nc1nc(=S)c2ncn([C@@H]3O[C@H](CO)[C@@H](O)[C@H]3O)c2[nH]1`: the AC35 is 4.88 µM.

Regarding `O=C(O)c1ccc(N/N=C/c2ccc(OC(=O)c3cccc(Cl)c3)cc2)cc1`, the AC35 was 7.06 µM.

Consider `COc1cccc(-c2cc(NC=O)c3ncc(-c4ccc(C(C)=O)cc4)n3c2)c1`, for which the AC35 is 6.25 µM.

Take `COC(=O)C[C@@H]1CC[C@@H]2[C@H](COc3ccc(NC(=O)c4ccc(F)c(F)c4)cc3C(=O)N2C)O1`: the AC35 was 64.7 µM.

On to `O=C(CCCN1C(=O)S/C(=C\c2ccccc2)C1=O)NNC(=O)c1ccccc1O`, for which the AC35 was 4.38 µM.

`C[C@@H]1CN([C@H](C)CO)C(=O)CCCn2nncc2CO[C@H]1CN(C)Cc1ccc(Oc2ccccc2)cc1`: the AC35 is 34.1 µM.

Take `C[C@@H]1CN([C@H](C)CO)C(=O)c2cc(NC(=O)CCCCCC(=O)Nc3ccccc3N)ccc2O[C@H]1CN(C)S(=O)(=O)c1ccc(Cl)cc1`: the AC35 is 35.2 µM.

On to `O=C(C[C@@H]1C[C@H]2c3cc(NC(=O)CC4CC4)ccc3O[C@H]2[C@H](CO)O1)NCc1ccccc1F`, for which the AC35 was 40.3 µM.

Consider `Cc1ccc2nc(-c3ccccc3)nn2c1`, for which the AC35 was 4.49 µM.

`O=C(NC[C@@H]1N[C@@H](CO)[C@H]1c1ccc(C2=CCCCC2)cc1)c1cccc(F)c1`: the AC35 is 29.8 µM.

Regarding `Cc1ccc(/C=C/C(=O)N2CCN(S(=O)(=O)c3c(C)c(C)cc(C)c3C)CC2)o1`, the AC35 is 49 µM.

Take `Cc1nc(N)nc(N)c1CCCc1ccc(Cl)c(Cl)c1`: the AC35 was 2.49 µM.

Take `CC(C)(C)c1ccc(Oc2ccc(NC(=O)c3ccccc3C(=O)O)cn2)cc1`: the AC35 is 5.78 µM.

Take `COC1C(C)OC(OC2CC(C)(O)Cc3cc4c(c(O)c32)C(=O)c2c(O)cc3c(c2C4=O)OC2OC3(C)C(O)C(N(C)C)C2O)C(OC)C1(C)OC` (centres undefined): the AC35 was 0.0829 µM.

Take `CCc1cccc2c(C(=O)CN3C(=O)NC4(CCCCC4)C3=O)c[nH]c12`: the AC35 was 14.1 µM.

In the case of `O=c1[nH]c(/C=C2\C=Nc3ccccc32)c(O)n1Cc1ccccc1F`, the AC35 was 4.21 µM.

As for `OC[C@H]1O[C@@H](n2cnc3c(NCc4ccco4)ncnc32)[C@H](O)[C@@H]1O`, the AC35 was 4.99 µM.

For the compound `CCN(CC)c1ccc(C2NC(=O)c3ccccc3N2)cc1` (centres undefined), the AC35 was 3.8 µM.

For the compound `COc1ccc(C2=Nn3c([n+](C)c4ccccc43)SC2)cc1`, the AC35 is 46.5 µM.

With `CC(C)CC#Cc1ccc([C@@H]2[C@@H](CO)N3CCCCN(S(=O)(=O)c4ccc(F)cc4)C[C@H]23)cc1`, the AC35 was 14.1 µM.

On to `O=C1NC(=O)N(Cc2ccccc2)C(=O)/C1=C\C=C\c1ccco1`, for which the AC35 is 10.4 µM.

As to `COc1cc2oc3cc(C#Cc4ccc(N)cc4)ccc3c(=O)c2cc1OC`, the AC35 is 10.3 µM.

Take `C(=Cc1c[nH]c2ccccc12)c1ccc2ccccc2n1`: the AC35 was 2.22 µM.

Turning to `O=c1[nH]c(=O)n([C@H]2C[C@H](O)[C@@H](CO)O2)cc1C(F)(F)F`, the AC35 is 3.33 µM.

The record behind these values is PubChem BioAssay AID686920 (Broad Institute, 2013).
